Columns and labels:
[1] = tested on: carrageenan foot edema; experiment: Rat carrageenan foot pad edema test; type: in vivo, Male Sprague-Dawley rats; parameters: inhibition in vivo: dose or concentration left out as unconfirmed; details: po, 3 h, dosed orally, foot volume three hours after carrageenan, read-out: RAT PAW EDEMA % Inhibition
Protocol: Rat Carrageenan Foot Pad Edema Test
Male Sprague-Dawley rats were selected in each group so that the average body weight was as close as possible. Rats were fasted with free access to water for over sixteen hours prior to the test. The rats were dosed orally (1 mL) with compounds suspended in vehicle containing 0.5% methylcellulose and 0.025% surfactant, or with vehicle alone. One hour later a subplantar injection of 0.1 mL of 1% solution of carrageenan/sterile 0.9% saline was administered and the volume of the injected foot was measured with a displacement plethysmometer connected to a pressure transducer with a digital indicator. Three hours after the injection of the carrageenan, the volume of the foot was again measured. The average foot swelling in a group of drug-treated animals was compared with that of a group of placebo-treated animals and the percentage inhibition of edema was determined (Otterness and Bliven, Laboratory Models for Testing NSAIDs, in Non-steroidal Anti-Inflammatory Drugs, (J. Lombardino, ed. 1985)).

[2] = molecular target: T1, COX-2 (UniProt P35354); experiment: Fast assay for COX-2 activity (PGE2 ELISA); type: biochemical, human or murine; details: fast assay: 10 min pre-incubation at 25° C., reaction stopped after two minutes, pH 7.5
T1 sequence (P35354 1-604): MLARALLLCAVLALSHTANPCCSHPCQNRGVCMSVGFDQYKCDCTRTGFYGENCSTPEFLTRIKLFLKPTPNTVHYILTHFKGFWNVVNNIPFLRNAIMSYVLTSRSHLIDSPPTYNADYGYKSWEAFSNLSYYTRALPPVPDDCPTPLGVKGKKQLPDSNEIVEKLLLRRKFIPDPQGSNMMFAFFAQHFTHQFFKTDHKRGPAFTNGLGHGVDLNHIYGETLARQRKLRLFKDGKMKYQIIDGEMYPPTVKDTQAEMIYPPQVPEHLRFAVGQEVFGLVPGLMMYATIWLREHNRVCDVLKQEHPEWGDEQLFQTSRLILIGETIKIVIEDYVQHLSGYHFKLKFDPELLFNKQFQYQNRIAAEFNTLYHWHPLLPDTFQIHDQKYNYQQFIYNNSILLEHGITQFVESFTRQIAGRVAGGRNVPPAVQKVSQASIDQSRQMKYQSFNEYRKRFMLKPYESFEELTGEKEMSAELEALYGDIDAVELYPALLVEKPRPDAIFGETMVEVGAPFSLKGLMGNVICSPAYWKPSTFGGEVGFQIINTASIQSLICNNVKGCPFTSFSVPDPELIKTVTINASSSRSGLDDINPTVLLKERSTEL
Protocol: The homogenate was centrifuged at 10,000×G for 30 minutes, and the resultant supernatant was stored at −80° C. before being assayed for COX activity.
Fast Assay for COX-1 and COX-2 Activity
COX activity was assayed as PGE2 formed/μg protein/time using an ELISA to detect the prostaglandin released. CHAPS-solubilized insect cell membranes containing the appropriate COX enzyme were incubated in a potassium phosphate buffer (0.05 M Potassium phosphate, pH 7.5, 2 μM phenol,1 μM heme, 300 μM epinephrine) with the addition of 20 μl of 100 μM arachidonic acid (10 μM). […] The PGE2 formed was measured by standard ELISA technology (Cayman Chemical).

[3] = molecular target: T1, COX-2; experiment: Assay for COX-2 activity (PGE2 ELISA); details: read-out: COX-2 IC50; 10–20 minutes pre-incubation, reaction stopped after ten minutes, pH 8.0
[4] = Analgesia (Table I); type: in vivo; parameters: inhibition in vivo: dose or concentration left out as unconfirmed; details: read-out: ANALGESIA % Inhibition
[5] = molecular target: COX-1 (UniProt P23219); experiment: Assay for COX-1 activity (PGE2 ELISA); details: read-out: COX-1 IC50; 10–20 minutes pre-incubation, reaction stopped after ten minutes, pH 8.0
Protocol: Recombinant baculoviruses were isolated by transfecting 4 μg of baculovirus transfer vector DNA into SF9 insect cells (2×10^8) along with 200 ng of linearized baculovirus plasmid DNA by the calcium phosphate method. […] Recombinant viruses were purified by three rounds of plaque purification and high titer (10^7–10^8 pfu/mL) stocks of virus were prepared. For large scale production, SF9 insect cells were infected in 10 liter fermentors (0.5×10^6/mL) with the recombinant baculovirus stock such that the multiplicity of infection was 0.1. […] The homogenate was centrifuged at 10,000×G for 30 minutes, and the resultant supernatant was stored at −80° C. before being assayed for COX activity.
Assay for COX-1 and COX-2 Activity
COX activity was assayed as PGE2 formed/μg protein/time using an ELISA to detect the prostaglandin released. CHAPS-solubilized insect cell membranes containing the appropriate COX enzyme were incubated in a potassium phosphate buffer (50 mM, pH 8.0) containing epinephrine, phenol, and heme with the addition of arachidonic acid (10 μM). […] The PGE2 formed was measured by standard ELISA technology (Cayman Chemical).

Q: For `C#Cc1cc(Cl)cc2c1OC(C(F)(F)F)C(C(=O)O)=C2` (stereo not drawn) [Example 115, 6-Chloro-8-ethynyl-2-(trifluoromethyl)-2H-1-benzopyran-3-carboxylic acid], which inhibition in vivo [1] is on record?
A: 52%

Q: And the IC50 [2]?
A: < 100 nM

Q: What about the IC50 [3] of the same compound?
A: < 100 nM

Q: And the melting point?
A: 186.2 to 189 °C

Q: What about the inhibition in vivo [4] of the same compound?
A: 62%

Q: What about the IC50 [5] of the same compound?
A: < 100 nM

Q: For `O=C(O)C1=Cc2cc(Cl)cc(Cl)c2SC1C(F)(F)F` (stereo not drawn) [Example 156, 6,8-Dichloro-2-trifluoromethyl-2H-1-benzothiopyran-3-carboxylic acid], which inhibition in vivo [1] is on record?
A: 54%

Q: What about the IC50 [2] of the same compound?
A: < 100 nM

Q: What about the IC50 [3] of the same compound?
A: < 100 nM

Q: What about the melting point of the same compound?
A: 217.9 to 220.3 °C

Q: And the inhibition in vivo [4]?
A: 66%

Q: And the IC50 [5]?
A: 100 nM

Q: Which results are given for `O=C(O)C1=Cc2cc(Cl)c(Oc3ccccc3)cc2OC1C(F)(F)F` (stereo not drawn) [Example 177, 6-Chloro-7-phenoxy-2-(trifluoromethyl)-2H-1-benzopyran-3-carboxylic acid]?
A: inhibition in vivo at 10 mg/kg ([1]; @ 10 mpk (values marked *)): 59%; IC50 [2]: < 100 nM; IC50 [3]: < 100 nM; melting point: 220.2 to 221.8 °C; inhibition in vivo at 10 mg/kg ([4]; @ 10 mpk (values marked *)): 61%; IC50 [5]: 300 nM

Q: Which results are given for `O=C(O)C1=Cc2cc(Cl)c(Oc3ccc(Cl)cc3Br)cc2OC1C(F)(F)F` (stereo not drawn) [Example 188, 7-(2-Bromo-4-chlorophenoxy)-6-chloro-2-(trifluoromethyl)-2H-1-benzopyran-3-carboxylic acid]?
A: inhibition in vivo [1]: 57%; IC50 [2]: < 100 nM; IC50 [3]: < 100 nM; melting point: 223.6 to 225.6 °C; inhibition in vivo [4]: 69%; IC50 [5]: 3700 nM

Reference: patent US7138411B2, “Substituted benzopyran derivatives for the treatment of inflammation” (G.D. Searle & Co., priority 1997, dated 2006)
